Measured values as given in patent publication US20250171423A1, “PHARMACEUTICAL COMPOUNDS FOR THE TREATMENT OF COMPLEMENT MEDIATED DISORDERS” (Achillion Pharmaceuticals, Inc., priority 2020, published 2025).

Target: T1, Human complement C1s enzyme (Homo sapiens, UniProt P09871)
T1 construct: purified from human serum, Complement Technology, Inc; purchased Complement Technology, Inc; host or cells: human serum
T1 sequence (P09871 438-688 limits assumed): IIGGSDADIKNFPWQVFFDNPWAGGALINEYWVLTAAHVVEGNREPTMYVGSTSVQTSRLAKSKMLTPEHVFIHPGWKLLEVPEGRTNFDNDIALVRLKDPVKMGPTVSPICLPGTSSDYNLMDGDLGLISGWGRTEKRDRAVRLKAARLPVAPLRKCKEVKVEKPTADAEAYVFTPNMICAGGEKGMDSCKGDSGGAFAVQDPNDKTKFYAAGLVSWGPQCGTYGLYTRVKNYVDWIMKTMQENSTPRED
T1 sequence (P09871 16-437 partner limits assumed): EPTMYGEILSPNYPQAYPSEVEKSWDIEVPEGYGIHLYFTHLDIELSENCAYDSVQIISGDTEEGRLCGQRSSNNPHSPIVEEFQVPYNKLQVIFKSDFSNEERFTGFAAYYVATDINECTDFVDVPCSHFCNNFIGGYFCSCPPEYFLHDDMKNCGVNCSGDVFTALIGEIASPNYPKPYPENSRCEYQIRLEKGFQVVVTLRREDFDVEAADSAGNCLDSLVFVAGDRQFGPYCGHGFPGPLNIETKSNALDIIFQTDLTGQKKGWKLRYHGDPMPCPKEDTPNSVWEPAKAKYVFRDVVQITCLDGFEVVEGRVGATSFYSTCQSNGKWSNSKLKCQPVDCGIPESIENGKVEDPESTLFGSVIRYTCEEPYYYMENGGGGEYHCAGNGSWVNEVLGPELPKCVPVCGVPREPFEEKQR
Assay: Human C1s Enzyme Assay
Type: biochemical
Conditions: human C1s 1.16 nM, 5 min preincubation, substrate Z-L-Lys-SBzl 100 μM, A405; read-out: C1s Protease Activity
Procedure: The assay of Example 3 was used to determine the IC50's of the compounds. Other standard complement assays are also available.
Example 3. Human C1s Enzyme Assay
Human complement C1s enzyme (purified from human serum, Complement Technology, Inc.) at 1.16 nM final concentration was incubated with test compound at various concentrations for 5 min at room temperature in 50 mM Tris, 1 M NaCl, pH 7.5. A synthetic substrate Z-L-Lys-SBzl and DTNB (Ellman's reagent) were added to final concentrations of 100 μM each. Absorbance at 405 nm (A405) was recorded at 30 second intervals for 30 min using a microplate spectrophotometer. IC50 values were calculated by nonlinear regression of complement C1s reaction rates as a function of test compound concentration.

Row | IC50 | SMILES
1 | > 1 µM | CNC(=O)C(NC(=O)[C@@H]1C[C@@H](OC(F)F)CN1C(=O)CNC(=O)c1ccc(Oc2ccccc2)cc1)c1cc(C(=N)N)cs1 (stereo partly drawn) [Compound 210, (2S,4R)-N-(1-(4-carbamimidoylthiophen-2-yl)-2-(methylamino)-2-oxoethyl)-4-(difluoromethoxy)-1-((4-phenoxybenzoyl)glycyl)pyrrolidine-2-carboxamide]
2 | < 0.1 µM | C[C@@]12C[C@@H]1N(C(=O)CNC(=O)CCOc1ccccc1)[C@H](C(=O)NCc1cc(C(=N)N)cs1)C2 [Compound 58, (1S,3S,5S)-N-((4-carbamimidoylthiophen-2-yl)methyl)-5-methyl-2-((3-phenoxy-propanoyl)glycyl)-2-azabicyclo[3.1.0]hexane-3-carboxamide]
3 | < 0.1 µM | C[C@@H](NC(=O)[C@@H]1C[C@]2(C)C[C@@H]2N1C(=O)CNC(=O)c1ccc(C(=O)c2ccccc2)cc1)c1cc(C(=N)N)cs1 [Compound 180, (1S,5S)-2-((4-benzoylbenzoyl)glycyl)-N-((R)-1-(4-carbamimidoylthiophen-2-yl)ethyl)-5-methyl-2-azabicyclo[3.1.0]hexane-3-carboxamide]
4 | < 0.1 µM | C[C@@H](NC(=O)[C@@H]1C[C@@H](OC(F)F)CN1C(=O)CNC(=O)c1ccc(Oc2ccccc2)cc1)c1cc(C(=N)N)cs1 [Compound 172, (2S,4R)-N-((R)-1-(4-carbamimidoylthiophen-2-yl)ethyl)-4-(difluoromethoxy)-1-((4-phenoxybenzoyl)glycyl)pyrrolidine-2-carboxamide]
5 | 0.1 to 1 µM | N=C(N)c1csc(CNC(=O)[C@@H]2C[C@H](c3ccccc3)CN2C(=O)CNC(=O)c2ccc(Oc3ccccc3)cc2)c1 [Compound 15, (2S,4R)-N-((4-carbamimidoylthiophen-2-yl)methyl)-1-((4-phenoxybenzoyl)glycyl)-4-phenylpyrrolidine-2-carboxamide]
6 | < 0.1 µM | C[C@@H](NC(=O)[C@@H]1C[C@]2(C)C[C@@H]2N1C(=O)CNC(=O)CCCCc1ccccc1)c1cc(C(=N)N)cs1 [Compound 130, (1S,3S,5S)-N-((R)-1-(4-carbamimidoylthiophen-2-yl)ethyl)-5-methyl-2-((5-phenyl-pentanoyl)glycyl)-2-azabicyclo[3.1.0]hexane-3-carboxamide]
7 | > 1 µM | N=C(N)c1csc([C@@H](NC(=O)[C@@H]2C[C@@H](OC(F)F)CN2C(=O)CNC(=O)c2ccc(Oc3ccccc3)cc2)C(N)=O)c1 (relative stereo) [Compound 214, (2S,4R)-N-((S*)-2-amino-1-(4-carbamimidoylthiophen-2-yl)-2-oxoethyl)-4-(difluoromethoxy)-1-((4-phenoxybenzoyl)glycyl)pyrrolidine-2-carboxamide]
8 | < 0.1 µM | C[C@@H](NC(=O)[C@@H]1C[C@@H](Oc2ccccc2)CN1C(=O)CNC(=O)c1ccc(Oc2ccccc2)cc1)c1cc(C(=N)N)cs1 [Compound 181, (2S,4R)-N-((R)-1-(4-carbamimidoylthiophen-2-yl)ethyl)-4-phenoxy-1-((4-phenoxybenzoyl)glycyl)pyrrolidine-2-carboxamide]
9 | < 0.1 µM | CS[C@@H]1C[C@@H](C(=O)NCc2cc(C(=N)N)cs2)N(C(=O)CNC(=O)c2ccc(Oc3ccccc3)cc2)C1 [Compound 45, (2S,4R)-N-((4-carbamimidoylthiophen-2-yl)methyl)-4-(methylthio)-1-((4-phenoxy-benzoyl)glycyl)pyrrolidine-2-carboxamide]
10 | > 1 µM | C[C@H](O)[C@H](O)[C@@H](O)[C@@H](O)CNCC(=O)N1[C@H]2C[C@@]2(C)C[C@H]1C(=O)NCc1nc(C(=N)N)cs1 [Compound 78, (1S,3S,5S)-N-((4-carbamimidoylthiazol-2-yl)methyl)-5-methyl-2-(((2S,3S,4S,5S)-2,3,4,5-tetrahydroxyhexyl)glycyl)-2-azabicyclo[3.1.0]hexane-3-carboxamide]
11 | < 0.1 µM | N=C(N)c1csc(CNC(=O)[C@@H]2C[C@H](c3ccc(F)cc3)CN2C(=O)CNC(=O)CCCOc2ccccc2)c1 [Compound 159, (2S,4R)-N-((4-carbamimidoylthiophen-2-yl)methyl)-4-(4-fluorophenyl)-1-((4-phenoxybutanoyl)glycyl)pyrrolidine-2-carboxamide]
12 | < 0.1 µM | Cc1cccc([C@@H]2C[C@@H](C(=O)NCc3cc(C(=N)N)cs3)N(C(=O)CNC(=O)CCCOc3ccccc3)C2)c1 [Compound 171, (2S,4S)-N-((4-carbamimidoylthiophen-2-yl)methyl)-1-((4-phenoxybutanoyl)glycyl)-4-(m-tolyl)pyrrolidine-2-carboxamide]
13 | < 0.1 µM | N=C(N)c1csc(CNC(=O)[C@@H]2C[C@H](C(F)(F)F)CN2C(=O)CNC(=O)CCCOc2ccccc2)c1 [Compound 59, (2S,4S)-N-((4-carbamimidoylthiophen-2-yl)methyl)-1-((4-phenoxybutanoyl)glycyl)-4-(trifluoromethyl)pyrrolidine-2-carboxamide]
14 | < 0.1 µM | C[C@@H](NC(=O)[C@@H]1C[C@@H](OC(F)F)CN1C(=O)CNC(=O)c1ccc(C(=O)c2ccccc2)cc1)c1cc(C(=N)N)cs1 [Compound 203, (2S,4R)-1-((4-benzoylbenzoyl)glycyl)-N-((R)-1-(4-carbamimidoylthiophen-2-yl)ethyl)-4-(difluoromethoxy)pyrrolidine-2-carboxamide]
15 | < 0.1 µM | N=C(N)c1csc(CNC(=O)[C@@H]2C[C@@H](OCC3CC3)CN2C(=O)CNC(=O)c2ccc(Oc3ccccc3)cc2)c1 [Compound 50, (2S,4R)-N-((4-carbamimidoylthiophen-2-yl)methyl)-4-(cyclopropylmethoxy)-1-((4-phenoxybenzoyl)glycyl)pyrrolidine-2-carboxamide]
16 | < 0.1 µM | N=C(N)c1csc(CNC(=O)[C@@H]2CC(O)(C(F)(F)F)CN2C(=O)CNC(=O)CCCOc2ccccc2)c1 (stereo partly drawn) [Compound 62, (2S)-N-((4-carbamimidoylthiophen-2-yl)methyl)-4-hydroxy-1-((4-phenoxybutanoyl)-glycyl)-4-(trifluoromethyl)pyrrolidine-2-carboxamide]
17 | < 0.1 µM | N=C(N)c1csc(CNC(=O)[C@@H]2C[C@H](C3CCCCC3)CN2C(=O)CNC(=O)CCCOc2ccccc2)c1 [Compound 242, (2S,4R)-N-((4-carbamimidoylthiophen-2-yl)methyl)-4-cyclohexyl-1-((4-phenoxybutanoyl)glycyl)pyrrolidine-2-carboxamide]
18 | 0.1 to 1 µM | N=C(N)c1csc(CNC(=O)[C@@H]2CC3(CCCC3)CN2C(=O)CNC(=O)CCCOc2ccccc2)c1 [Compound 82, (S)-N-((4-carbamimidoylthiophen-2-yl)methyl)-2-((4-phenoxybutanoyl)glycyl)-2-azaspiro[4.4]nonane-3-carboxamide]
19 | > 1 µM | Cc1sc(CNC(=O)[C@@H]2C[C@]3(C)C[C@@H]3N2C(=O)CNC(=O)c2ccc(Oc3ccccc3)cc2)cc1C(=N)N [Compound 204, (1S,3S,5S)-N-((4-carbamimidoyl-5-methylthiophen-2-yl)methyl)-5-methyl-2-((4-phenoxybenzoyl)glycyl)-2-azabicyclo[3.1.0]hexane-3-carboxamide]
20 | < 0.1 µM | N=C(N)c1csc(CNC(=O)[C@@H]2C[C@@H](c3ccc(F)cc3)CN2C(=O)CNC(=O)CCCOc2ccccc2)c1 [Compound 164, (2S,4S)-N-((4-carbamimidoylthiophen-2-yl)methyl)-4-(4-fluorophenyl)-1-((4-phenoxybutanoyl)glycyl)pyrrolidine-2-carboxamide]
21 | < 0.1 µM | C[C@@]12C[C@@H]1N(C(=O)CNC(=O)c1ccc(Oc3ccccc3)cn1)[C@H](C(=O)NCc1cc(C(=N)N)cs1)C2 [Compound 93, (1S,3S,5S)-N-((4-carbamimidoylthiophen-2-yl)methyl)-5-methyl-2-((5-phenoxy-picolinoyl)glycyl)-2-azabicyclo[3.1.0]hexane-3-carboxamide]
22 | 0.1 to 1 µM | C[C@@]12C[C@@H]1N(C(=O)CNC(=O)c1ccc(Oc3ccccc3)cc1)[C@H](C(=O)NCc1ccc(N)nc1)C2 [Compound 5]

Row | SMILES | IC50
23 | N=C(N)c1csc(CNC(=O)C23CCC(CC2)N3C(=O)CNC(=O)c2ccc(Oc3ccccc3)cc2)c1 [Compound 16, N-((4-carbamimidoylthiophen-2-yl)methyl)-7-((4-phenoxybenzoyl)glycyl)-7-azabicyclo[2.2.1]heptane-1-carboxamide] | 0.1 to 1 µM

Same assay, conditions: read-out: C1s Protease Activity; human C1s 1.16 nM, 5 min preincubation, substrate Z-L-Lys-SBzl 100 μM, A405

Row | SMILES | IC50
24 | N=C(N)c1csc(CNC(=O)C23CCC(CC2)N3C(=O)CNC(=O)CCCOc2ccccc2)c1 [Compound 30, N-((4-carbamimidoylthiophen-2-yl)methyl)-7-((4-phenoxybutanoyl)glycyl)-7-azabicyclo[2.2.1]heptane-1-carboxamide] | < 0.1 µM
